Test [1] concerns the target T1, H^+ +K^+ ATPase (Sus scrofa, UniProt P19156).
T1 construct: prepared from the stomach of a pig; from tissue; host or cells: pig stomach
The test can be described thus: H+ + K+ ATPase inhibitory action. The settings on record: pig stomach enzyme, protein 10 μg; pH 7.4, 37° C., 30 minutes. The class given is biochemical. The method, then: (c) H^+ +K^+ ATPase Inhibitory Action
H^+ +K^+ ATPase (adenosinetriphosphatase)(protein: 10 μg) prepared from the stomach of a pig was added to a pipes-Tris [2-amino-2-(hydroxymethyl)-1,3-propandiol] buffer (pipes-Tris buffer)(pH 8.1) containing 2 mM piperazine N,N'-bis(2-ethane sulfonic acid). The resultant reaction solution was allowed to stand at a room temperature. Each of the test compounds was dissolved in dimethyl formamide, which was added to the H^+ +K^+ ATPase buffer such that the final concentration was 1%. The resultant reaction solution was reacted at a room temperature for 30 minutes. In the same manner, another reaction solution was prepared. Respectively added to the reaction solutions were 1 ml of a 75 mM pipes-TRIS buffer (pH 7.4) (containing 4 mM MgCl2, 4 mM Na2 ATP and 20 mM KCl) and 1 ml of a 75 mM pipes-Tris buffer (pH7.4) (containing 4 mM MgCl2 and 4 mM Na2 ATP). Thus, two kinds of samples were prepared and reacted at 37° C. for 30 minutes. Added to each of the samples was 0.3 ml of 40% trichloroacetic acid, thus completing the reaction. After the samples were subjected to centrifugal separation (3,000 rpm) for 10 minutes. The supernatant liquids were taken to produce inorganic phosphoric acids, of which amounts were measured according to a Fiske and Subbarow method [J. Biol. Chem. vol. 86,375 (1925)]. The amount of the inorganic phosphoric acid obtained from the pipes-Tris buffer containing no 20 mM KCl was deducted from the amount of the inorganic phosphoric acid obtained from the pipes-Tris buffer containing 20 mM KCl. The difference expressed in terms of unit protein per unit time was defined as an enzyme active value. The inhibition value (%) of each dosage was obtained from the control value and the enzyme active value at each dosage. Based on the inhibition value thus obtained, IC50 (the dosage of each test compound which achieves inhibition of 50%) was obtained.

In test [2] the test system is stomach-acid secretion. The test can be described thus: Stomach-acid secretion inhibitory action on rats (histamine-stimulated, perfused stomach). The test is classed as in vivo, Wistar-type male rats. The settings on record: Rattus norvegicus, iv; 0.3, 1, 3, 10 and 30 mg/kg; histamine dihydrochloride 1 mg/kg/hr; probit method. The procedure:
(a) Stomach-Acid Secretion Inhibitory Action on Rats
After each of Wistar-type male rats was let abstain from food for 24 hours, the pylorus thereof was bound while the rat was paralyzed with urethane (1.5 g/kg s.c.), and a stomach perfusion cannula was inserted into the rat stomach. The rat stomach was perfused with a physiological salt solution through an oral catheter. The amount of stomach-acid secretion was measured by titrating the total acidity and pH of the perfusion solution. As an acid secretion stimulant, 1 mg/kg/hr of histamine dihydrochloride was continuously injected through the femoral vein to accelerate the acid secretion. Then, the effects of a variety of compounds were studied.
Each of test compounds as dissolved in dimethylformamide was intravenously administered to the rat in each of dosages of 0.3, 1, 3, 10 and 30 mg/kg through […].
There was calculated an inhibition percentage of acid secretion with respect to acid secretion before administration of each of the test compounds. An ED50 value was calculated from the inhibition percentage with respect to each dosage according to a probit method.

The structures appear in SMILES notation. Structures can show the parent of a compound that is named as a salt.

T1 sequence (P19156 2-1034 limits assumed): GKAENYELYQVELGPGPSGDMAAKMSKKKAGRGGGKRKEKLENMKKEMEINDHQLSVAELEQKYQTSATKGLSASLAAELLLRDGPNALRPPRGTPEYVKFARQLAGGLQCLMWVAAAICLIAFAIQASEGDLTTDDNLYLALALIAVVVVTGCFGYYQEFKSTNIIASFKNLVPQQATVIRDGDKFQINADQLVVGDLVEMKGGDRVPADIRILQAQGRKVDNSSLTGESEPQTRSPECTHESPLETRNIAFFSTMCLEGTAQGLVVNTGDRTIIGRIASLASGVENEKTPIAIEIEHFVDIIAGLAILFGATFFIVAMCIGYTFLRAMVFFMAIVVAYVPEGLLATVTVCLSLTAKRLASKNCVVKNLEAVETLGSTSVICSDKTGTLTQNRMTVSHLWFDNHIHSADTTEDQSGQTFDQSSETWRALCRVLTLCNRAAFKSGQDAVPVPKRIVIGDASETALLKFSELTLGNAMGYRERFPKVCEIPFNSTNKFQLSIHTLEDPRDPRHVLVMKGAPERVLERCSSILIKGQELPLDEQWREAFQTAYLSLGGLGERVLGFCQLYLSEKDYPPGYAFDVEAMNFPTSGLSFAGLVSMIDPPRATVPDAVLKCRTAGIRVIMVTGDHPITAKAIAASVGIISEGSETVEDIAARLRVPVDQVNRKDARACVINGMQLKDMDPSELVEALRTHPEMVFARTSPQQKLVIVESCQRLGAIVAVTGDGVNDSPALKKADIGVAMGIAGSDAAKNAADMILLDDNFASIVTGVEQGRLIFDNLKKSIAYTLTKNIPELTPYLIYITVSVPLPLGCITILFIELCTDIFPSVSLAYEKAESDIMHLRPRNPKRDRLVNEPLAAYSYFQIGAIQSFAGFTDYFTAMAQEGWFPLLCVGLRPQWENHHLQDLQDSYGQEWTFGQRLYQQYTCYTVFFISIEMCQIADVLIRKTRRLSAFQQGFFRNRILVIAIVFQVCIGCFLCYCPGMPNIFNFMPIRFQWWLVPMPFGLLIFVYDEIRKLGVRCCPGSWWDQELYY
T1 sequence (P18434 whole entry partner): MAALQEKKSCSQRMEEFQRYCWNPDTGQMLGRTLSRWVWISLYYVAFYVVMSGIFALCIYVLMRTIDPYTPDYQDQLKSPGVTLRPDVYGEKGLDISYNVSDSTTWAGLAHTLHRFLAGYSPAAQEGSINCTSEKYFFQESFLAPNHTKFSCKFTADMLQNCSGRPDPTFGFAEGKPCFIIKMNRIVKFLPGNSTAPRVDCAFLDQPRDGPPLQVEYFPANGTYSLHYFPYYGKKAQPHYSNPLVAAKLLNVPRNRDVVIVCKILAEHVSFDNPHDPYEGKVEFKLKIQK

Take `C=CCNC(=O)c1cnc2c(OC)cccc2c1Nc1ccccc1SCCC` [Test Compound 5, N-2-propenyl-8-methoxy-4-[(2-propylthiophenyl)amino]quinoline-3-carboxamide hydrochloride]: the IC50 in test [1] amounted to 1600 nM.
Still for that read-out and setting: to `C=CCNC(=O)c1cnc2c(OC)cccc2c1Nc1ccccc1CC` [Test Compound 2, N-2-propenyl-4-[(2-ethylphenyl)amino]-8-methoxyquinoline-3-carboxamide hydrochloride] belongs 2200 nM.
With `C=CCNC(=O)c1cnc2c(OC)cccc2c1Nc1ccccc1C(C)C` [Test Compound 3, N-2-propenyl-4-[(2-isopropylphenyl)amino]-8-methoxyquinoline-3-carboxamide hydrochloride], in test [1], the IC50 was determined as 4900 nM.
Take `C=CCNC(=O)c1cnc2c(OC)cccc2c1Nc1ccccc1C.Cl` [Test Compound 1, N-2-propenyl-8-methoxy-4-[(2-methylphenyl)amino]quinoline-3-carboxamide hydrochloride]: it took a dose of 6.72 mg/kg to reach the 50% effect level in test [2] (ED50).

(Values after US5215999A, “Quinoline derivative and antiulcer agent containing said quinoline derivative” (Otsuka Pharmaceutical Co., Ltd., priority 1990, dated 1993).)
